# Measured values reported in ChEMBL document CHEMBL5346891, “Overview of the development of HBV small molecule inhibitors” (Eur J Med Chem, 2023).
# Tests used:
# [1] = tested on: Hepatitis B virus; assay: Antiviral activity against HBV infected in human HepDES19 cells assessed as reduction in viral DNA replication measured after 72 hrs by q-PCR assay; type: functional, organism-based; details: HepDES19, 72 h
# [2] = tested on: Hepatitis B virus; assay: Antiviral activity against HBV infected in human HepG2.2.15 cells assessed as reduction in HBeAg at 100 ug/ml measured after 7 day by enzyme immunoassay relative to control; type: functional; details: HepG2.2.15, 168 h
# [3] = tested on: Hepatitis B virus; assay: Antiviral activity against HBV infected in human HepG2.2.15 cells assessed as reduction in HBsAg at 100 ug/ml measured after 7 day by enzyme immunoassay relative to control; type: functional; details: HepG2.2.15, 168 h
# [4] = tested on: Hepatitis B virus; assay: Antiviral activity against HBV infected in human HepG2.2.15 cells assessed as reduction in HBsAg measured after 7 day by enzyme immunoassay relative to control; type: functional, organism-based; details: HepG2.2.15, 168 h
# [5] = tested on: Hepatitis B virus; assay: Antiviral activity against HBV infected in human HepG2.2.15 cells assessed as reduction in HBeAg level measured after 144 hrs by ELISA; type: functional, organism-based; details: HepG2.2.15, 144 h
# [6] = tested on: Hepatitis B virus; assay: Antiviral activity against HBV infected in human HepG2.2.15 cells assessed as reduction in HBsAg level measured after 144 hrs by ELISA; type: functional, organism-based; details: HepG2.2.15, 144 h
# [7] = tested on: Hepatitis B virus; assay: Antiviral activity against HBV infected in human HepG2 cells assessed as reduction in cccDNA transcription level; type: functional, organism-based
# [8] = tested on: Hepatitis B virus; assay: Antiviral activity against HBV stably transfected in human HepDES19 cells assessed as reduction in viral DNA measured after 7 days by q-PCR assay; type: functional, organism-based; details: HepDES19, 168 h
# [9] = tested on: Hepatitis B virus; assay: Antiviral activity against HBV infected in human HepG2-NTCP12 cells assessed as reduction in viral DNA measured after 7 days by q-PCR assay; type: functional, organism-based; details: HepG2-NTCP12, 168 h
# [10] = tested on: Hepatitis B virus; assay: Antiviral activity against HBV infected in human HepG2.2.15 cells assessed as reduction in cccDNA transcription; type: functional, organism-based
# [11] = tested on: Hepatitis B virus; assay: Antiviral activity against HBV infected in human HepG2.2.15 cells assessed as inhibition of viral replication; type: functional, organism-based
# [12] = tested on: Hepatitis B virus; assay: Antiviral activity against HBV infected in human HepDE19 cells assessed as inhibition of viral replication; type: functional, organism-based
# [13] = tested on: Hepatitis B virus; assay: Antiviral activity against HBV infected in human HePAD38 cells assessed as inhibition of viral replication; type: functional, organism-based
# [14] = tested on: Hepatitis B virus; assay: Antiviral activity against HBV infected in human HepDES19 cells assessed as reduction in cccDNA accumulation by southern blot analysis; type: functional, organism-based
# [15] = tested on: Hepatitis B virus; assay: Antiviral activity against HBV infected in human HepDES19 cells assessed as reduction in viral rcDNA level measured after 7 days by a branched chain DNA hybridization assay; type: functional, organism-based; details: HepDES19, 168 h
# [16] = Modulation of capsid assembly in HBV genotype D assessed as inhibition of DNA replication; type: functional, Hepatitis B virus
# [17] = Modulation of capsid assembly in HBV genotype F assessed as inhibition of viral replication; type: functional, Hepatitis B virus
# [18] = Modulation of capsid assembly in HBV genotype E assessed as inhibition of viral replication; type: functional, Hepatitis B virus
# [19] = Modulation of capsid assembly in HBV genotype G assessed as inhibition of viral replication; type: functional, Hepatitis B virus
# [20] = Modulation of capsid assembly in HBV genotype A assessed as inhibition of viral replication; type: functional, Hepatitis B virus
# [21] = Modulation of capsid assembly in HBV genotype B assessed as inhibition of viral replication; type: functional, Hepatitis B virus
# [22] = Modulation of capsid assembly in HBV genotype C assessed as inhibition of viral replication; type: functional, Hepatitis B virus
# [23] = Modulation of capsid assembly in HBV genotype H assessed as inhibition of viral replication; type: functional, Hepatitis B virus
# [24] = tested on: Hepatitis B virus; assay: Antiviral activity against drug-resistant HBV infected in human HepG2.2.15 cells; type: functional, organism-based
# [25] = tested on: Hepatitis B virus; assay: Antiviral activity against HBV infected in human HepG2.2.15 cells; type: functional, organism-based
# [26] = tested on: Hepatitis B virus; assay: Antiviral activity against HBV infected in human HepG2.2.15 cells assessed as reduction in viral DNA level; type: functional, organism-based
# [27] = tested on: Hepatitis B virus; assay: Antiviral activity against HBV infected in human HepG2-hNTCP cells assessed as reduction in HBeAg level; type: functional, organism-based
# [28] = tested on: Hepatitis B virus; assay: Antiviral activity against HBV infected in human Primary hepatocyte cells assessed as reduction in HBeAg level; type: functional, organism-based
# [29] = tested on: Hepatitis B virus; assay: Antiviral activity against HBV infected in human Primary hepatocyte cells assessed as reduction in HBsAg level; type: functional, organism-based
# [30] = tested on: Hepatitis B virus; assay: Antiviral activity against HBV infected in human HepG2-hNTCP cells assessed as reduction in HBsAg level; type: functional, organism-based
# [31] = tested on: Hepatitis B virus; assay: Antiviral activity against HBV infected in human HepG2-hNTCP cells assessed as reduction in pgRNA level; type: functional, organism-based
# [32] = tested on: Hepatitis B virus; assay: Antiviral activity against HBV infected in human Primary hepatocyte cells assessed as reduction in pgRNA level; type: functional, organism-based
# [33] = tested on: Hepatitis B virus; assay: Antiviral activity against HBV infected in human HePAD38 cells assessed as reduction in cccDNA level; type: functional, organism-based
compound,measurement,setting,value
C/C(=N\OCc1ccc(C)cc1)c1c(C)cc(=O)n(O)c1O,EC50,[1],0.46 µM
O=C(/C=C/c1ccc(O)c(O)c1)O[C@@H]1[C@H](O)C[C@@](O)(C(=O)O)C[C@H]1OC(=O)/C=C/c1ccc(O)c(O)c1,inhibition at 100 µg/mL,[2],81%
same,inhibition at 100 µg/mL,[3],90%
same,EC50,[4],31.9 µM
C=C(C)[C@@H]1CC[C@]2(C(=O)OC)CC[C@]3(COC(=O)c4ccccc4)[C@H](CC[C@@H]4[C@@]5(C)CC[C@H](OC(C)=O)C(C)(C)[C@@H]5CC[C@]43C)[C@H]12,EC50,[5],8.9 µM
same,EC50,[6],8.9 µM
CN[C@@H](C)C(=O)N[C@H]1CN(S(=O)(=O)c2cccc(S(=O)(=O)N3CC[C@H]4CC[C@@H](C(=O)NC(c5ccccc5)c5ccccc5)N4C(=O)[C@@H](NC(=O)[C@H](C)NC)C3)c2)CC[C@H]2CC[C@@H](C(=O)NC(c3ccccc3)c3ccccc3)N2C1=O,EC50,[7],0.02 µM
Cc1c(O)c2cc(Br)cnc2n(O)c1=O,EC50,[8],1.5 µM
same,EC50,[9],0.078 µM
O=C(/C=C/c1ccc(O)c(O)c1)O[C@@H]1C[C@](O)(C(=O)O)C[C@@H](OC(=O)/C=C/c2ccc(O)c(O)c2)[C@H]1O,inhibition at 100 µg/mL,[2],73%
same,inhibition at 100 µg/mL,[3],81%
same,EC50,[4],90.5 µM
CC(=O)c1cc(O)c(=O)c(O)cc1C,EC50,[8],0.29 µM
same,EC50,[9],0.057 µM
O=C1OCc2c1cc1ccc3c(c1c2-c1ccc2c(c1)OCO2)OCO3 [HELIOXANTHIN],EC50,[10],0.16 µM
CCOC(=O)C1=C(CN2CCN3C(=O)N(CC(C)(C)C(=O)O)C[C@@H]3C2)N=C(c2nccs2)N[C@H]1c1cccc(F)c1C [LINVENCORVIR],EC50,[11],0.017 µM
same,EC50,[12],0.027 µM
same,EC50,[13],0.018 µM
Cc1nc2cc(NC(=O)c3ccc(S(=O)(=O)N(C)Cc4ccccc4)cc3)ccc2s1,EC50,[14],3 µM
COc1ccc(CO/N=C(\C)c2c(C)cc(=O)n(O)c2O)cc1,EC50,[15],0.4 µM
same,EC50,[1],0.26 µM
C[C@H](NS(=O)(=O)c1cc(C(=O)Nc2ccc(F)c(C#N)c2)n(C)c1)C(F)(F)F [BERSACAPAVIR],EC50,[16],0.017 µM
same,EC50,[17],0.01 µM
same,EC50,[18],0.01 µM
same,EC50,[19],0.01 µM
same,EC50,[20],0.01 µM
same,EC50,[21],0.01 µM
same,EC50,[22],0.01 µM
same,EC50,[23],0.01 µM
CCOC(=O)C1=C(CN2CCOCC2)NC(c2nccs2)=N[C@H]1c1ccc(F)cc1Br,EC50,[24],0.01 µM
same,EC50,[25],0.001 µM
C/C(=N\OCc1ccccc1)c1c(C)cc(=O)n(O)c1O,EC50,[1],0.54 µM
O=C(NCc1cnc(C(F)(F)F)s1)c1ccc2c(c1)NC(=O)c1ccccc1S2(=O)=O [VEBICORVIR],EC50,[26],0.173 µM
same,EC50,[27],1.84 µM
same,EC50,[28],1.84 µM
same,EC50,[29],1.84 µM
same,EC50,[30],1.84 µM
same,EC50,[31],1.84 µM
same,EC50,[32],1.84 µM
C/C(=N\OCc1ccc(F)cc1)c1c(C)cc(=O)n(O)c1O,EC50,[15],0.1 µM
same,EC50,[1],0.11 µM
C/C(=N\OCc1ccccc1F)c1c(C)cc(=O)n(O)c1O,EC50,[15],0.33 µM
same,EC50,[1],0.32 µM
O=C(CN(c1cc(C(F)(F)F)ccc1Cl)S(=O)(=O)c1ccccc1)NCc1ccncc1,EC50,[14],10 µM
COc1ccccc1CO/N=C(\C)c1c(C)cc(=O)n(O)c1O,EC50,[1],0.5 µM
Cc1c(C(=O)C(=O)NCC#N)c(C)n(C)c1C(=O)Nc1ccc(F)c(F)c1,EC50,[33],0.003 µM
